Data from patent US10800792B2, “Inhibitors of Bruton's tyrosine kinase and method of their use” (JANSSEN PHARMACEUTICA NV, priority 2015, dated 2020).

biological target: unphosphorylated-BTK kinase domain (UP-BTK), GST-tagged human BTK (389-659aa) (Homo sapiens (Human), UniProt Q06187); test: BTK kinase Lanthascreen binding assay; details: Lanthascreen tracer competition, 60 minutes incubation; pIC50 = negative log of the IC50 in molar
In short: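 Tracer-displacement binding assay against the non-phosphorylated enzyme, read by Lanthascreen. Reported: pIC50.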

Chain of unphosphorylated-BTK kinase domain (UP-BTK), GST-tagged human BTK (389-659aa) (Q06187 389-659): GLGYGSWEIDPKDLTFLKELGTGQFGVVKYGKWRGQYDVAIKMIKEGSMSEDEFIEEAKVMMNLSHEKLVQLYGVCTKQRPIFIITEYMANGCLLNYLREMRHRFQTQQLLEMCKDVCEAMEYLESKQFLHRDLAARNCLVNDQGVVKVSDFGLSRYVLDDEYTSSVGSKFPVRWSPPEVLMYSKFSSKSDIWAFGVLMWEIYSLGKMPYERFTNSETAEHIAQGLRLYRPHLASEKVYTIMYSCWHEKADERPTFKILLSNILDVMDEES

SMILES | BTK_I_binding pIC50
O=C(N[C@@H]1CCCNC1)c1sc2nccc3c2c1NC(=O)N3c1cncc(-c2ccccc2)c1 [Example 618, (R)-4-Oxo-5-(5-phenylpyridin-3-yl)-N-(piperidin-3-yl)-4,5-dihydro-3H-1-thia-3,5,8-triazaacenaphthylene-2-carboxamide] | 6.0
Cc1nc(Oc2ccccc2)ccc1N1C(=O)Nc2c(C(=O)N[C@@H]3CCNC3)sc3nccc1c23 (single isomer, unassigned) [Example 728, (R)-5-(*R)-(2-Methyl-6-phenoxypyridin-3-yl)-4-oxo-N-(pyrrolidin-3-yl)-4,5-dihydro-3H-1-thia-3,5,8-triazaacenaphthylene-2-carboxamide] | <6
C=CC(=O)N1CCC[C@@H](NC(=O)c2sc3nccc4c3c2NC(=O)N4c2ccc(OC)cc2C)C1 [Example 694, (R)—N-(1-Acryloylpiperidin-3-yl)-5-(4-methoxy-2-methylphenyl)-4-oxo-4,5-dihydro-3H-1-thia-3,5,8-triazaacenaphthylene-2-carboxamide] | 7.1
C=CC(=O)N1CCC[C@@H](NC(=O)c2sc3nccc4c3c2NC(=O)N4c2ccc(OC3CCC3)nc2)C1 [Example 687, (R)—N-(1-Acryloylpiperidin-3-yl)-5-(6-cyclobutoxypyridin-3-yl)-4-oxo-4,5-dihydro-3H-1-thia-3,5,8-triazaacenaphthylene-2-carboxamide] | 7.5
O=C(N[C@@H]1CCCNC1)c1sc2nccc3c2c1NC(=O)N3c1cccc(OC2CCC2)c1 [Example 621, (R)-5-(3-Cyclobutoxyphenyl)-4-oxo-N-(piperidin-3-yl)-4,5-dihydro-3H-1-thia-3,5,8-triazaacenaphthylene-2-carboxamide] | <6
C=CC(=O)N1CCC[C@@H](NC(=O)c2sc3nccc4c3c2NC(=O)N4c2ccc(Oc3cccc(C)n3)cc2)C1 [Example 775, (R)—N-(1-Acryloylpiperidin-3-yl)-5-(4-((6-methylpyridin-2-yl)oxy)phenyl)-4-oxo-4,5-dihydro-3H-1-thia-3,5,8-triazaacenaphthylene-2-carboxamide] | 7.5
Cc1cc(Oc2ccccc2)ccc1N1C(=O)Nc2c(C(=O)N[C@H]3CCCN(C(=O)CC#N)C3)sc3nccc1c23 [Example 892, (S)—N-(1-(2-Cyanoacetyl)piperidin-3-yl)-5-(2-methyl-4-phenoxyphenyl)-4-oxo-4,5-dihydro-3H-1-thia-3,5,8-triazaacenaphthylene-2-carboxamide] | 7.0

same assay, conditions: pIC50 = negative log of the IC50 in molar; 60 minutes incubation, 50 nM Tracer 236

SMILES | BTK_I_binding pIC50
Cc1cc(Oc2ccccc2)ccc1N1C(=O)Nc2c(C(=O)NC3CC[C@@H](C)N(C)C3)sc3nccc1c23 (mixture of isomers) [Example 92, N-(1,6-Dimethylpiperidin-3-yl)-5-(2-methyl-4-phenoxyphenyl)-4-oxo-4,5-dihydro-3H-1-thia-3,5,8-triazaacenaphthylene-2-carboxamide] | 6.8
Cc1cc(Oc2cccc3ccoc23)ccc1N1C(=O)Nc2c(C(=O)N[C@@H]3CCCN(C)C3)sc3nccc1c23 [Example 70, (R)-5-(4-(Benzofuran-7-yloxy)-2-methylphenyl)-N-(1-methylpiperidin-3-yl)-4-oxo-4,5-dihydro-3H-1-thia-3,5,8-triazaacenaphthylene-2-carboxamide] | 7.1
Cc1cc(Oc2ccccc2)ccc1N1C(=O)Nc2c(C(=O)N[C@@H]3CCCN(C(=O)C4CCOCC4)C3)sc3nccc1c23 [Example 219, (R)-5-(2-Methyl-4-phenoxyphenyl)-4-oxo-N-(1-(tetrahydro-2H-pyran-4-carbonyl)piperidin-3-yl)-4,5-dihydro-3H-1-thia-3,5,8-triazaacenaphthylene-2-carboxamide] | 6.9
Cc1cc(Oc2ccccc2)ccc1N1C(=O)Nc2c(C(=O)N[C@@H]3CCOC3)sc3nccc1c23 (single isomer, unassigned) [Example 80, (R)-5-(*S)-(2-Methyl-4-phenoxyphenyl)-4-oxo-N-(tetrahydrofuran-3-yl)-4,5-dihydro-3H-1-thia-3,5,8-triazaacenaphthylene-2-carboxamide] | 7.8
COCCC(=O)N1CC[C@@H](NC(=O)c2sc3nccc4c3c2NC(=O)N4c2ccc(Oc3ccccc3)cc2C)C1 [Example 72, (R)—N-(1-(3-Methoxypropanoyl)pyrrolidin-3-yl)-5-(2-methyl-4-phenoxyphenyl)-4-oxo-4,5-dihydro-3H-1-thia-3,5,8-triazaacenaphthylene-2-carboxamide] | 7.4
CNCCC(=O)N1CCC[C@@H](NC(=O)c2sc3nccc4c3c2NC(=O)N4c2ccc(Oc3ccccc3)cc2C)C1 [Example 106, (R)-5-(2-Methyl-4-phenoxyphenyl)-N-(1-(3-(methylamino)propanoyl)piperidin-3-yl)-4-oxo-4,5-dihydro-3H-1-thia-3,5,8-triazaacenaphthylene-2-carboxamide] | 7.3

same assay, conditions: pIC50 = negative log of the IC50 in molar; 60 minutes incubation, 50 nM Tracer 236; read-out: BTK_I_binding pIC50 (converted)

SMILES | IC50 [nM]
C=CC(=O)N1C[C@H](NC(=O)c2sc3nccc4c3c2NC(=O)N4c2ccc(Oc3ccccc3)cc2C)C[C@@H](OC)C1 [Example 8, N-((3R,5R)-1-Acryloyl-5-methoxypiperidin-3-yl)-5-(2-methyl-4-phenoxyphenyl)-4-oxo-4,5-dihydro-3H-1-thia-3,5,8-triazaacenaphthylene-2-carboxamide] | 15.8

same assay, conditions: unphosphorylated-BTK kinase domain, 50 nM Tracer 236, 60 minutes; pIC50 = negative log of the IC50 in molar

SMILES | BTK_I_binding pIC50
Cc1cc(Oc2cccnc2)ccc1N1C(=O)Nc2c(C(=O)N[C@@H]3CCCN(C)C3)sc3nccc1c23 [Example 293, (R)-5-(2-Methyl-4-(pyridin-3-yloxy)phenyl)-N-(1-methylpiperidin-3-yl)-4-oxo-4,5-dihydro-3H-1-thia-3,5,8-triazaacenaphthylene-2-carboxamide] | 6.1
Cc1cc(OC(C)C)ccc1N1C(=O)Nc2c(C(=O)N[C@@H]3CCN(C(=O)/C=C/CN(C)C)C3)sc3nccc1c23 [Example 562, (R,E)-N-(1-(4-(Dimethylamino)but-2-enoyl)pyrrolidin-3-yl)-5-(4-isopropoxy-2-methylphenyl)-4-oxo-4,5-dihydro-3H-1-thia-3,5,8-triazaacenaphthylene-2-carboxamide] | 6.7
Cc1cc(Oc2ccccc2)ccc1N1C(=O)Nc2c(C(=O)N[C@@H]3CCN(C)C3)sc3nccc1c23 (single isomer, unassigned) [Example 493, (R)-5-(*S)-(2-Methyl-4-phenoxyphenyl)-N-(1-methylpyrrolidin-3-yl)-4-oxo-4,5-dihydro-3H-1-thia-3,5,8-triazaacenaphthylene-2-carboxamide] | 6.9
Cc1cc(Oc2ccccc2)ccc1N1C(=O)Nc2c(C(=O)N[C@@H]3CCCN(C(=O)[C@H](C)CO)C3)sc3nccc1c23 [Example 564, N—((R)-1-((R)-3-Hydroxy-2-methylpropanoyl)piperidin-3-yl)-5-(2-methyl-4-phenoxyphenyl)-4-oxo-4,5-dihydro-3H-1-thia-3,5,8-triazaacenaphthylene-2-carboxamide] | 7.2
C=CC(=O)N1CCC[C@@H](NC(=O)c2sc3nccc4c3c2NC(=O)N4c2ccc3c(c2)OC(F)(F)O3)C1 [Example 525, (R)—N-(1-Acryloylpiperidin-3-yl)-5-(2,2-difluorobenzo[d][1,3]dioxol-5-yl)-4-oxo-4,5-dihydro-3H-1-thia-3,5,8-triazaacenaphthylene-2-carboxamide] | 7.5
CCN1CCC[C@@H](NC(=O)c2sc3nccc4c3c2NC(=O)N4c2ccc(Oc3ccccc3C(C)C)cc2C)C1 [Example 320, (R)—N-(1-Ethylpiperidin-3-yl)-5-(4-(2-isopropylphenoxy)-2-methylphenyl)-4-oxo-4,5-dihydro-3H-1-thia-3,5,8-triazaacenaphthylene-2-carboxamide] | 6.7
Cc1ncccc1N1C(=O)Nc2c(C(=O)N[C@@H]3CCCNC3)sc3nccc1c23 [Example 359, (R)-5-(2-Methylpyridin-3-yl)-4-oxo-N-(piperidin-3-yl)-4,5-dihydro-3H-1-thia-3,5,8-triazaacenaphthylene-2-carboxamide] | <5
CCOc1ccc(N2C(=O)Nc3c(C(=O)N[C@@H]4CCCN(C)C4)sc4nccc2c34)c(C)c1 [Example 333, (R)-5-(4-Ethoxy-2-methylphenyl)-N-(1-methylpiperidin-3-yl)-4-oxo-4,5-dihydro-3H-1-thia-3,5,8-triazaacenaphthylene-2-carboxamide] | 5.5
Cc1ccc(Oc2ccc(N3C(=O)Nc4c(C(=O)N[C@@H]5CCCN(C)C5)sc5nccc3c45)c(C)c2)cc1 [Example 290, (R)-5-(2-Methyl-4-(p-tolyloxy)phenyl)-N-(1-methylpiperidin-3-yl)-4-oxo-4,5-dihydro-3H-1-thia-3,5,8-triazaacenaphthylene-2-carboxamide] | 6.2
C=CC(=O)N1CCC[C@@H](NC(=O)c2sc3nccc4c3c2NC(=O)N4c2cccc(-c3ccc(F)cc3F)c2)C1 [Example 515, (R)—N-(1-Acryloylpiperidin-3-yl)-5-(2′,4′-difluoro-[1,1′-biphenyl]-3-yl)-4-oxo-4,5-dihydro-3H-1-thia-3,5,8-triazaacenaphthylene-2-carboxamide] | 7.7
Cc1cc(Oc2ccccc2)ccc1N1C(=O)Nc2c(C(=O)N[C@@H]3CCCN(C(C)C)C3)sc3nccc1c23 (single isomer, unassigned) [Example 542, (R)—N-(1-Isopropylpiperidin-3-yl)-5-(*S)-(2-methyl-4-phenoxyphenyl)-4-oxo-4,5-dihydro-3H-1-thia-3,5,8-triazaacenaphthylene-2-carboxamide] | 7.2
C=CC(=O)N1CCC[C@@H](NC(=O)c2sc3nccc4c3c2NC(=O)N4c2cccc(Oc3ccccc3)c2)C1 [Example 527, (R)—N-(1-Acryloylpiperidin-3-yl)-4-oxo-5-(3-phenoxyphenyl)-4,5-dihydro-3H-1-thia-3,5,8-triazaacenaphthylene-2-carboxamide] | 8.1
